# Assay results reported in ChEMBL document CHEMBL5442168, “ASAP - In vitro liver microsomal stability” (2024).
# Values joined by “and” are separate entries in the source; they are usually repeats but may differ in a detail not shown here. Equal entries are not always repeated.
# Columns and labels:
# [1] = (§1) Mouse liver microsomal stability of compound in microsomal protein, PBS buffer pH 7.4, NADPH, glucose-6-phosphate and glucose-6-phosphate dehydrogenase media. Aliquotes were taken at 5 time points and after stopping the reaction, supernatants were analyzed using HPLC coupled with a tandem mass spectrometer. The elimination constant, half-life, and intrinsic clearance are determined as results using linear regression analysis. The assay has been performed by Enamine biological services, Bienta Ltd.The protocol is publicly available: dx.doi.org/10.17504/protocols.io.5qpvokdb9l4o/v1; assay type: ADME, microsomes, Microsome; details: for half-life / microsomal CLint: liver microsomes
# [2] = as §1, with “Human” for “Mouse”; assay type: ADME, microsomes, Microsome; details: for half-life / microsomal CLint: liver microsomes
# For Remaining (without cofactor) in this document: time not given here.
# For Remaining in this document: time not given here.
half-life [1],microsomal CLint [1],Remaining ([1]; microsomes),Remaining (without cofactor) ([1]; microsomes),half-life [2],microsomal CLint [2],Remaining ([2]; microsomes),Remaining (without cofactor) ([2]; microsomes),CLint ([1]; microsomes),T1/2 ([1]; microsomes),CLint ([2]; microsomes),T1/2 ([2]; microsomes),SMILES
42.6 min,39 µL/min/mg,53%,98%,7 min,240 µL/min/mg,2%,115%,,,,,CC(C)[C@H](Nc1ncnc2[nH]c(-c3cnn(CC(N)=O)c3)cc12)c1ccc2c(c1)S(=O)(=O)CCC2
6.5 min,257 µL/min/mg,2%,113%,2.4 min,706 µL/min/mg,1%,103%,,,,,CC(C)[C@H](Nc1ncnc2[nH]c(-c3cnn(C)c3C#N)cc12)c1ccc2c(c1)OCCO2
41.1 min,41 µL/min/mg,54% and 49%,87% and 98%,,,,103% and 90%,42 µL/min/mg,40 min,99 µL/min/mg and 238 µL/min/mg,16.9 min and 7 min,CC(C)[C@@H](Nc1ncnc2[nH]c(-c3cnn(CC(N)=O)c3)cc12)c1ccc2c(c1)OCCO2
